Measurements: article PMC7150766 (Viruses, 2020)

Legend:
[1] = system: LNCs and splenocytes from immunized mice; experiment: Proliferative response, whole cells from VP1 peptide-immunized mice; type: cell-based, A/J mice
[2] = system: splenocytes from CVB4-infected A/J mice; experiment: Proliferative response of splenocytes from CVB4-infected mice; type: cell-based; settings: peptide 2 days, then 3[H] thymidine 16 h, p ≤ 0.01 for VP1 721–740, Figure 6a

## VNTFVHESLADVQA [RNase 43–56, bovine ribonuclease (RNase) 43–56, irrelevant control peptide]
[1]
  Proliferative response (in words): the cells did not react to control
[2]
  Proliferative response (in words): the cells did not respond to control
